Experiment [1] in a line: Binding affinity to sigma-2 receptor in rat liver homogenates. In kind it is tissue-based.
Experiment [2] in a line: Selectivity ratio of Ki for sigma-2 receptor in rat liver homogenates to Ki for sigma-1 receptor in guinea pig brain homogenates. In kind it is tissue-based.
The subject of experiment [3] is RPMI-8226. Nature of the experiment: Induction of apoptosis in human RPMI8226 cells assessed as caspase-9 protein expression at 36 uM after 6 to 96 hrs by Western blotting analysis. In kind it is functional, cell-based. (In general: In western blotting, separated proteins are transferred to a membrane and probed.)
Experiment [4] has as its system RPMI-8226. The experiment is described as follows: Induction of apoptosis in human RPMI8226 cells assessed as dead cells at 36 uM after 48 hrs by annexin V-FITC/propidium iodide staining-based flow cytometric analysis relative to control. In kind it is functional. In general terms: In flow cytometry, cells or beads pass a laser one at a time.
In experiment [5] the test system is RPMI-8226. The experiment is described as follows: Induction of apoptosis in human RPMI8226 cells at 36 uM after 6 hrs by annexin V-FITC/propidium iodide staining-based flow cytometric analysis. In kind it is functional, cell-based.
The test system of experiment [6] is RPMI-8226. The experiment is described as follows: Induction of apoptosis in human RPMI8226 cells assessed as early/late apoptotic cells at 36 uM after 48 hrs by annexin V/propidium iodide staining-based flow cytometric analysis in presence of alpha-tocopherol. In kind it is functional, cell-based.
Experiment [7] relates to RPMI-8226. Nature of the experiment: Induction of apoptosis in human RPMI8226 cells assessed as chromatin condensation at 36 uM after 24 to 48 hrs by DAPI staining-based fluorescence microscopic analysis. In kind it is functional, cell-based.
The test system of experiment [8] is RPMI-8226. The experiment is described as follows: Induction of apoptosis in human RPMI8226 cells assessed as decrease in Bax protein expression at 36 uM by Western blotting analysis. In kind it is functional, cell-based. To be noted: TDE = time-dependent effect.
Experiment [9] in a line: Displacement of [3H]-DTG from sigma-2 receptor in human RT4 cell homogenates in presence of (+)-pentazocine. In kind it is tissue-based. To be noted: rt-4. Background: Loss of bound radioactivity is the signal in a displacement assay; it reports binding, not function.
The test system of experiment [10] is RPMI-8226. The experiment is described as follows: Induction of apoptosis in human RPMI8226 cells assessed as early apoptotic cells at 36 uM after 24 hrs by annexin V/propidium iodide staining-based flow cytometric analysis. In kind it is functional, cell-based.
The test system of experiment [11] is RPMI-8226. Nature of the experiment: Induction of apoptosis in human RPMI8226 cells at 36 uM after 48 hrs by annexin V-FITC/propidium iodide staining-based flow cytometric analysis in presence of caspase inhibitor z-VAD-FMK. In kind it is functional, cell-based.
The test system of experiment [12] is HL-60. Nature of the experiment: Cytotoxicity against human HL60 cells assessed as cell viability at 20 uM after 72 hrs by MTT assay. In kind it is functional, cell-based.
Experiment [13] deals with RPMI-8226. Nature of the experiment: Selectivity ratio of Ki for sigma-2 receptor in human RT4 cell homogenates to Ki for sigma-1 receptor in human RPMI8226 cells. In kind it is cell-based.
The subject of experiment [14] is RPMI-8226. Nature of the experiment: Induction of apoptosis in human RPMI8226 cells assessed as caspase-8 activation at 36 uM by flow cytometric analysis in presence of FITC-IETD-FMK. In kind it is functional, cell-based. To be noted: TDE = time-dependent effect.
Experiment [15] relates to RPMI-8226. The experiment is described as follows: Induction of autophagy in human RPMI8226 cells assessed as […] at 36 uM by Western blotting analysis. To be noted: TDE = time-dependent effect. In kind it is functional, cell-based.
In experiment [16] the test system is RPMI-8226. Nature of the experiment: Induction of apoptosis in human RPMI8226 cells assessed as caspase-9 activation at 36 uM by flow cytometric analysis in presence of […]. In kind it is functional, cell-based. To be noted: TDE = time-dependent effect.
For experiment [17], the system named is RPMI-8226. Nature of the experiment: Induction of apoptosis in human RPMI8226 cells assessed as increase in apoptotic cells at 36 uM after 24 to 48 hrs by annexin V-FITC/propidium iodide staining-based flow cytometric analysis. In kind it is functional, cell-based.
Experiment [18] deals with RPMI-8226. The experiment is described as follows: Induction of apoptosis in human RPMI8226 cells assessed as caspase-3 activation at 36 uM by flow cytometric analysis in presence of […]. In kind it is functional, cell-based. The note with it: TDE = time-dependent effect.
Experiment [19] deals with RPMI-8226. Nature of the experiment: Induction of apoptosis in human RPMI8226 cells assessed as early apoptotic cells at 36 uM after 48 hrs by annexin V-FITC/propidium iodide staining-based flow cytometric analysis in presence of wortmannin. In kind it is functional, cell-based.
Experiment [20] relates to RPMI-8226. Nature of the experiment: Induction of apoptosis in human RPMI8226 cells assessed as PARP-1 cleavage at 36 uM after 6 hrs by Western blotting analysis. In kind it is functional, cell-based.
Experiment [21] has as its system RPMI-8226. The experiment is described as follows: Induction of apoptosis in human RPMI8226 cells assessed as early apoptotic cells at 36 uM after 24 hrs by annexin V/propidium iodide staining-based flow cytometric analysis in presence of alpha-tocopherol. In kind it is functional, cell-based.
The target in experiment [22] is Sigma non-opioid intracellular receptor 1 (Cavia porcellus, UniProt Q60492). The experiment is described as follows: Displacement of [3H]-(+)-pentazocine from sigma-1 receptor in guinea pig brain homogenates. In kind it is tissue-based.
Experiment [23] concerns RPMI-8226. Nature of the experiment: Induction of apoptosis in human RPMI8226 cells assessed as caspase-8 cleavage at 36 uM after 6 to 96 hrs by Western blotting analysis. In kind it is functional, cell-based.
For experiment [24], the system named is RPMI-8226. Nature of the experiment: Induction of apoptosis in human RPMI8226 cells assessed as early apoptotic cells at 36 uM after 48 hrs by annexin V-FITC/propidium iodide staining-based flow cytometric analysis. In kind it is functional, cell-based.
Experiment [25] deals with RPMI-8226. The experiment is described as follows: Induction of autophagy in human RPMI8226 cells assessed as p62 protein expression at 36 uM after 6 to 96 hrs by Western blotting analysis. In kind it is functional, cell-based.
Experiment [26] deals with Sigma non-opioid intracellular receptor 1 (Homo sapiens, UniProt Q99720). Nature of the experiment: Displacement of [3H]-(+)-pentazocine from sigma-1 receptor in human RPMI8226 cells. In kind it is cell-based, RPMI-8226.
The subject of experiment [27] is RPMI-8226. The experiment is described as follows: Cytotoxicity against human RPMI8226 cells assessed as cell viability after 72 hrs by MTT assay. In kind it is functional, cell-based.
The test system of experiment [28] is RPMI-8226. Nature of the experiment: Induction of apoptosis in human RPMI8226 cells assessed as dead cells at 36 uM after 48 hrs by annexin V-FITC/propidium iodide staining-based flow cytometric analysis in presence of apoptosis inhibitor 2,2'-methylenebis(1,3-cyclohexandione) relative to control. In kind it is functional.
Experiment [29] is described as follows: Displacement of [3H]-DTG from sigma-2 receptor in rat liver homogenates in presence of (+)-pentazocine. In kind it is tissue-based.
For experiment [30], the system named is RPMI-8226. The experiment is described as follows: Induction of apoptosis in human RPMI8226 cells assessed as early apoptotic cells at 36 uM after 48 hrs by annexin V/propidium iodide staining-based flow cytometric analysis. In kind it is functional, cell-based.
Experiment [31] relates to RPMI-8226. Nature of the experiment: Induction of apoptosis in human RPMI8226 cells assessed as decrease in Bid protein expression at 36 uM up to 96 hrs by Western blotting analysis. In kind it is functional, cell-based.
For experiment [32], the system named is RPMI-8226. Nature of the experiment: Induction of apoptosis in human RPMI8226 cells assessed as increase in Bcl2 protein expression at 36 uM by Western blotting analysis. The note with it: TDE = time-dependent effect. In kind it is functional, cell-based.

Activity calls are given as the source filed them. The rule behind the calls is not given here.

As a reminder, the Ki is the dissociation constant of the complex between target and ligand, obtained from inhibition or displacement. As a reminder, the IC50 is the concentration that gives 50% inhibition.

Sequence of Sigma non-opioid intracellular receptor 1 (Cavia porcellus, UniProt Q60492) (Q60492 whole entry): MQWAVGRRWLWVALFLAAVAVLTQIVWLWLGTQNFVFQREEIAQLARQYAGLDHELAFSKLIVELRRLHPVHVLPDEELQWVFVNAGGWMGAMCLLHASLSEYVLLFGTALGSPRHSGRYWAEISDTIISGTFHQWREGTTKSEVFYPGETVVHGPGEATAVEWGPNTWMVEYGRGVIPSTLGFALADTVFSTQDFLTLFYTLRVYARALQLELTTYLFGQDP
Sequence of Sigma non-opioid intracellular receptor 1 (Homo sapiens, UniProt Q99720) (Q99720 whole entry): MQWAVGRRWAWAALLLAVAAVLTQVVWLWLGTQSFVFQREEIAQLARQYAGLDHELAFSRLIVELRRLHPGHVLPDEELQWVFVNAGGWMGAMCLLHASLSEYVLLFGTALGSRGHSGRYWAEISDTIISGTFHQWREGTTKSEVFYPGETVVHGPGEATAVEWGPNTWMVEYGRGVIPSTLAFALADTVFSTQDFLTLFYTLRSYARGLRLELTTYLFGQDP

As to `COc1ccc(CN2CCN(Cc3ccccc3)[C@@H](CO)C2)cc1`, the Ki in experiment [1] worked out at 70 nM. Besides, the Ratio Ki in experiment [2] was 5.8.

As to `OCC[C@H]1CN(CC2CCCCC2)CCN1Cc1ccc(-c2ccccc2)cc1`, the result in [3], in experiment [5], in experiment [6], in experiment [12], in experiment [25] and in experiment [30] was inactive. The outcome in experiment [31] was inactive. Also, the Activity is 18% in [4]; “tde” in experiment [8]; “tde” in experiment [14]; “tde” in [15]; “tde” in experiment [16]; “tde” in [18]. Moreover, the Activity entry is “Dose-dependent effect” in experiment [27], 21% in experiment [28] and “tde” in experiment [32]. Also, the result in experiment [7], in [10], in experiment [11], in experiment [17], in experiment [19] and in experiment [20] was Active. In addition, the outcome in [21], in experiment [23] and in [24] was Active. Besides, the Ki in [9] came to 43 nM; in [22] it was 3.5 nM; in [26], 34 nM; in [29], 73 nM. Besides, the Ratio Ki in experiment [13] stood at 1.3; in experiment [2], 20.8. In addition, the half-inhibitory concentration (IC50) in experiment [27] (RPMI-8226, 72 h) was found to be 21300 nM.

(Values after ChEMBL document CHEMBL3102830, “Involvement of apoptosis and autophagy in the death of RPMI 8226 multiple myeloma cells by two enantiomeric sigma receptor ligands” (Bioorg Med Chem, 2014).)
